Measurements published in article PMC10650955, “α-Aminophosphonate inhibitors of metallo-β-lactamases NDM-1 and VIM-2” (RSC Medicinal Chemistry, 2023).
Where a name gives a salt, the structure may show the parent alone.

Experiments:
NDM-1 = target: T1, NDM-1 (Klebsiella pneumoniae, UniProt C7C422); assay: Dose rate inhibition studies for IC50 determination, NDM-1 enzymatic assay; assay type: biochemical; conditions: Enzyme IC50 NDM-1, 10 nM NDM-1, 100 μM ZnCl2, imipenem substrate, inhibitor 0-800 μM, 3 parallel measurements; N.I. = no enzyme inhibitory activity observed
T1 construct: made in house
T1 sequence (C7C422 29-270 limits assumed): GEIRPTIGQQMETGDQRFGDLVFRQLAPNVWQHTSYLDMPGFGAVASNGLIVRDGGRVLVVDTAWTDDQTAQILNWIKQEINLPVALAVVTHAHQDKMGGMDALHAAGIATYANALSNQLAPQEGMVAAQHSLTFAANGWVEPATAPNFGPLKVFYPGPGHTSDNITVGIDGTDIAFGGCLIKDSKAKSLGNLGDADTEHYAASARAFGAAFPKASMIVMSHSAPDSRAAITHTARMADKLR
Procedure: (§1) The […] synthesized compounds 5a–l were tested for their inhibitory activities against NDM-1, VIM-2 (Table 1), and GIM-1 in an in vitro enzymatic assay (ESI ^†).[41] The inhibitory activity was measured using enzyme concentrations of 0.1 nM VIM-2, 10 nM NDM-1 or 1 nM GIM-1, with an excess Zn(II) (100 μM, see Experimental methods), with inhibitor compounds with concentrations from 0 to 800 μM. Each data point was measured in triplicates. […] This is in line with previous reports.[42,43]
(§2) A 100 μl solution with buffer (50 mM HEPES (pH 7.2), 100 μM ZnCl2, 2.5% DMSO), purified enzyme (0.1 nM VIM-2, 10 nM NDM-1 or 1 nM GIM-1) and 800–0 μM inhibitor was incubated in a 96 well plate at 25 °C for 5 min. In addition, the enzyme buffer contained 400 μg ml^−1 bovine serum albumin (BSA) to prevent protein unfolding and loss of activity due to low concentrations.[67,68] 100 μM of the reporter substrate nitrocefin (VIM-2, GIM-1) or imipenem (NDM-1) was added to the enzyme–inhibitor solution and the increase in absorbance at 482 nm (nitrocefin) or 300 nm (imipenem) was recorded on a Spectramax M4 spectrophotometer (Molecular Devices). Each data point was performed in triplicates and the initial velocity for each inhibitor concentration was analyzed by a log [inhibitor] vs. response curve fitting to calculate IC50 in GraphPad Prism 9.2 software.

15N-labelled NDM-1 = target: T2, 15N-labelled NDM-1 (Klebsiella pneumoniae, UniProt C7C422); assay: 1H,15N HSQC NMR chemical shift perturbation titration, NDM-1; assay type: binding
T2 construct: made in house
T2 sequence (C7C422 29-270 limits assumed): as above
Procedure: (§3) Solution NMR spectroscopy is a powerful tool to assess protein–ligand interactions under close to physiological conditions.[47] We, therefore, performed NMR chemical shift perturbation (CSP, for details, see section S8, ESI ^†) experiments to identify the amino acid residues of NDM-1 and VIM-2 that are involved in inhibitor binding, making use of the previously published protein assignments.[48,49] Titrations were conducted using ^15N-labelled proteins with 0, 0.5, 1, 2, 4, 8, and 16 equiv. of 5 inhibitors for NDM-1 and of 7 inhibitors for VIM-2.
(§4) For the titrations, ^15N-labelled NDM-1 and ^15N-labelled VIM-2 (250 μM), and titrated ligands (0.5 equiv. in 1 μL) were prepared in the same buffer as the protein (20 mM KPO4, 0.1 mM ZnCl2, pH 7.0 with 10% D2O and 2.5% DMSO-d6). ^1H,^15N HSQC spectra were acquired with 128 × 1024 complex points (F1 × F2) and spectral width of 9090 × 2740 Hz on ^15N-labeled NDM-1/VIM-2 and with every titration step up to 1 : 16 ratio between protein : ligand (0, 0.5, 1, 2, 4, 8, and 16 equiv. of ligand). All experiments were recorded on a Bruker 600 MHz spectrometer at 310 K equipped with a 5 mm TCI cryogenic probe. The NMR data were processed on the MestReNova software with the Mnova Binding plugin. The weighted average chemical shift perturbations (CSP) for the backbone amides were calculated from the observed chemical shift differences in the proton and nitrogen dimensions using the equation (chemical shift scaling factors: FH = 1, FN = 0.156) CSP = Δδ1H,15N = [drawing 13] .
(§5) 7. Chemical shift perturbation histograms
(§6) Chemical shift perturbation was calculated according equation (1) 2
(§7) CSP = Δδ(1H,15N) = √(Δδ1H2 + (1⁄R × Δδ15N2) Rscale = 6.5 (1)
(§8) Where Δδ1H is the chemical shift change for proton dimension, Δδ15N is the chemical shift change for nitrogen dimension, Rscale is a
(§9) The chemical shift perturbations (CSP) were classified as significant (SSP) when the observed Δδ(1H,15N) was greater than the population
(§10) mean plus the standard deviation (µ+1σ) – solid line; (µ+2σ) – dashed line, and (µ+3σ) – dashed line.
(§11) Further on, Kd was calculated according: 3
(§12) ([P]+[L]+Kd)− √([P]+[L]+Kd)2−4[P][L]
(§13) ΔδmaxΔδobs = Δδmax 2[P] (2)
(§14) Where Kd is the dissociation constant, [P] and [L] are protein and ligand concentrations, respectively. Δδmax were estimated in
(§15) MestReNova by extrapolation of the obser ved chemical shift differences Δδobs.

VIM-2 = target: T3, VIM-2 (Escherichia coli, UniProt Q5U7L7); assay: Dose rate inhibition studies for IC50 determination, VIM-2 enzymatic assay; assay type: biochemical; conditions: Enzyme IC50 VIM-2, 0.1 nM VIM-2, 100 μM ZnCl2, nitrocefin substrate, inhibitor 0-800 μM, 3 parallel measurements; N.I. = no enzyme inhibitory activity observed
T3 construct: made in house
Procedure: as §1, §2

15N-labelled VIM-2 = target: T4, 15N-labelled VIM-2 (Escherichia coli, UniProt Q5U7L7); assay: 1H,15N HSQC NMR chemical shift perturbation titration, VIM-2; assay type: binding; conditions: VIM-2 Kd, 0-16 equiv. ligand, pH 7.0, 310 K
T4 construct: made in house
Procedure: as §3, §4, §5, §6, §7, §8, §9, §10, §11, §12, §13, §14, §15

[1] = Estimated binding constant (Kd), residue 070F, Table S5, per-residue fit, NDM-1 070F
[2] = Estimated binding constant (Kd), residue 108E, Table S5, per-residue fit, NDM-1 108E
[3] = Estimated binding constant (Kd), residue 119T, Table S5, per-residue fit, NDM-1 119T
[4] = Estimated binding constant (Kd), residue 124D, Table S5, per-residue fit, NDM-1 124D
[5] = Estimated binding constant (Kd), residue 127G, Table S5, per-residue fit, NDM-1 127G
[6] = Estimated binding constant (Kd), residue 152E, Table S5, per-residue fit, NDM-1 152E
[7] = Estimated binding constant (Kd), residue 159H, Table S5, per-residue fit, NDM-1 159H
[8] = Estimated binding constant (Kd), residue 160S, Table S5, per-residue fit, NDM-1 160S
[9] = Estimated binding constant (Kd), residue 194I, Table S5, per-residue fit, NDM-1 194I
[10] = Estimated binding constant (Kd), residue 197G, Table S5, per-residue fit, NDM-1 197G
[11] = Estimated binding constant (Kd), residue 205F, Table S5, per-residue fit, NDM-1 205F
[12] = Estimated binding constant (Kd), residue 211K, Table S5, per-residue fit, NDM-1 211K
[13] = Estimated binding constant (Kd), residue 214K, Table S5, per-residue fit, NDM-1 214K
[14] = Estimated binding constant (Kd), residue 217S, Table S5, per-residue fit, NDM-1 217S
[15] = Estimated binding constant (Kd), residue 228H, Table S5, per-residue fit, NDM-1 228H
[16] = Estimated binding constant (Kd), residue 229Y, Table S5, per-residue fit, NDM-1 229Y
[17] = Estimated binding constant (Kd), residue 230A, Table S5, per-residue fit, NDM-1 230A
[18] = Estimated binding constant (Kd), residue 232S, Table S5, per-residue fit, NDM-1 232S
[19] = Estimated binding constant (Kd), residue 248M, Table S5, per-residue fit, NDM-1 248M
[20] = Estimated binding constant (Kd), residue 251S, Table S5, per-residue fit, NDM-1 251S
[21] = Estimated binding constant (Kd), residue 254D, Table S5, per-residue fit, NDM-1 254D
[22] = Estimated binding constant (Kd), residue 255S, Table S5, per-residue fit, NDM-1 255S
[23] = NDM-1 Kd, NMR chemical shift perturbation, 0-16 equiv. ligand, pH 7.0, 310 K

Compound	IC50 (NDM-1) [mM]	Kd (15N-labelled NDM-1; [1]) [mM]	Kd (15N-labelled NDM-1; [2]) [mM]	Kd (15N-labelled NDM-1; [3]) [mM]	Kd (15N-labelled NDM-1; [4]) [mM]	Kd (15N-labelled NDM-1; [5]) [mM]	Kd (15N-labelled NDM-1; [6]) [mM]	Kd (15N-labelled NDM-1; [7]) [mM]	Kd (15N-labelled NDM-1; [8]) [mM]	Kd (15N-labelled NDM-1; [9]) [mM]	Kd (15N-labelled NDM-1; [10]) [mM]	Kd (15N-labelled NDM-1; [11]) [mM]	Kd (15N-labelled NDM-1; [12]) [mM]	Kd (15N-labelled NDM-1; [13]) [mM]	Kd (15N-labelled NDM-1; [14]) [mM]	Kd (15N-labelled NDM-1; [15]) [mM]	Kd (15N-labelled NDM-1; [16]) [mM]	Kd (15N-labelled NDM-1; [17]) [mM]	Kd (15N-labelled NDM-1; [18]) [mM]	Kd (15N-labelled NDM-1; [19]) [mM]	also measured
O=C(Cc1cccs1)NC(C1CCCCN1)P(=O)(O)O (stereo not drawn) [Compound 5i-2, (Piperidin-2-yl(2-(thiophen-2-yl)acetamido)methyl)phos-phonic acid hydrochloride]	0.271 ± 0.034	4.9	2.03	26.4	14.1	1.76	1.18	8.3	17.6	2.49	15.2	6.84	17.1	0.78	16.4	10.1	2.3	2.71	5.57	2.58	Kd (15N-labelled NDM-1; Estimated binding constant (Kd), residue 206G, Table S5, per-residue fit, NDM-1 206G): 6.81 mM; Kd (15N-labelled NDM-1; Estimated binding constant (Kd), residue 249S, Table S5, per-residue fit, NDM-1 249S): 8.45 mM; Kd (15N-labelled NDM-1; [20]): 3.38 mM; Kd (15N-labelled NDM-1; [21]): 5.01 mM; Kd (15N-labelled NDM-1; [22]): 1.66 mM; Kd (15N-labelled NDM-1; Estimated binding constant (Kd), residue 263A_266A, Table S5, per-residue fit, NDM-1 263A_266A): 0.69 mM; Kd (15N-labelled NDM-1; [23]): 1.4 ± 0.1 mM; IC50 (VIM-2): 0.328 ± 0.116 mM; Kd (15N-labelled VIM-2): 1.1 ± 0.1 mM
O=C(NC(C1CCCCN1)P(=O)(O)O)c1cccs1 (stereo not drawn) [Compound 5b-1, (Piperidin-2-yl(thiophene-2-carboxamido)methyl)phos-phonic acid hydrochloride]	0.23 ± 0.028	2.92	6.63	18.1	3.17	8.34	3.52	21.5	8.97	2.93	10.4	11	3.49	1.36	10.5	11	2.24	4.33	12.1	12.9	Kd (15N-labelled NDM-1; Estimated binding constant (Kd), residue 091T, Table S5, per-residue fit, NDM-1 091T): 5.76 mM; Kd (15N-labelled NDM-1; Estimated binding constant (Kd), residue 149A, Table S5, per-residue fit, NDM-1 149A): 1.71 mM; Kd (15N-labelled NDM-1; Estimated binding constant (Kd), residue 188G, Table S5, per-residue fit, NDM-1 188G): 3.4 mM; Kd (15N-labelled NDM-1; Estimated binding constant (Kd), residue 191S, Table S5, per-residue fit, NDM-1 191S): 0.85 mM; Kd (15N-labelled NDM-1; [20]): 6.07 mM; Kd (15N-labelled NDM-1; Estimated binding constant (Kd), residue 252A, Table S5, per-residue fit, NDM-1 252A): 3.48 mM; Kd (15N-labelled NDM-1; [21]): 9.74 mM; Kd (15N-labelled NDM-1; [22]): 7.37 mM; Kd (15N-labelled NDM-1; [23]): 2 ± 0.1 mM; IC50 (VIM-2): 0.118 ± 0.06 mM; Kd (15N-labelled VIM-2): 0.4 ± 0.04 mM
